Measured values: ChEMBL document CHEMBL5120819, “Tanzawaic Acids from a Deep-Sea Derived Penicillium Species” (J Nat Prod, 2022)

Columns and labels:
Escherichia coli = test: […] activity against Escherichia coli ATCC 35218 assessed as reduction in microbial growth after 12 to 18 hrs by microbroth dilution method; type: functional; details: time 12-18 hrs
Candida albicans = test: Antifungal activity against Candida albicans ATCC 10231 assessed as reduction in microbial growth after 12 to 18 hrs by microbroth dilution method; type: functional; details: time 12-18 hrs
[1] = Cytotoxicity against human A549 cells assessed as reduction in cell viability at 13 uM by SRB assay relative to control; type: toxicity, cell-based; details: read-out: GI

MIC (Escherichia coli) | Structure (SMILES) | MIC (Candida albicans) | inhibition at 13 µM [1]
10 µg/mL | C[C@H]1C[C@@H](C)[C@@H]2[C@@H](/C=C/C=C/C(=O)O)[C@@H](C)C=C[C@H]2C1 | 20 µg/mL | 
 | COc1ccc([C@@H]2SS[C@@]34C[C@]5(O)[C@H](O)C=C[C@@H](O)[C@@H]5ON3C(=O)[C@@H]2N(C)C4=O)c(O)c1OC | 30 µg/mL | 
 | COc1ccc([C@@H]2SS[C@@]34C[C@]5(O)[C@H](OC(=O)/C=C/C=C/c6c(C)ccc7c6[C@H](C)C[C@H](C)C7)C=C[C@@H](O)[C@@H]5ON3C(=O)[C@@H]2N(C)C4=O)c(O)c1OC |  | 90.7%
 | COc1ccc([C@@H]2SS[C@@]34C[C@]5(O)[C@H](OC(=O)/C=C/C=C/[C@@H]6[C@H]7[C@H](C)C[C@H](C)C[C@@H]7C=C[C@@H]6C)C=C[C@@H](O)[C@@H]5ON3C(=O)[C@@H]2N(C)C4=O)c(O)c1OC |  | 51.7%
